System: Mg-63 cells
Assay: LDH cytotoxicity assay (LDH release as marker of dead cells)
Format: cell-based
Details: control group = 100%, aloe vera extract 5% (v/v), SDKP about 75 micrograms per milliliter, Fingolimod hydrochloride about 10 nanogram per milliliter, FIG. 3
Procedure: In some cases, lactate dehydrogenase (LDH) assays can be performed by assessing or measuring the LDH released into the media as a marker of dead cells. In this example, biocompatibility and cytotoxicity of the injectable scaffold of the present disclosure as a whole and its components were measured by an LDH cytotoxicity assay as follows.
Mg-63 cell line was the source of osteoblast cells in the following assays. Six test groups and one control group of Mg-63 cells were prepared for investigating the cytotoxicity effects of the present injectable scaffold and its components. FIG. 3 illustrates the data of LDH release from Mg-63 cells of six test groups and one control group. […]

For `C[C@H](NC(=O)[C@H](CC(=O)O)NC(=O)[C@H](C)NC(=O)[C@H](CCCNC(=N)N)NC(=O)[C@H](C)NC(=O)[C@H](CC(=O)O)NC(=O)[C@H](C)NC(=O)[C@H](CCCNC(=N)N)NC(=O)[C@H](C)NC(=O)[C@H](CC(=O)O)NC(=O)[C@H](C)NC(=O)[C@H](CCCNC(=N)N)NC(=O)[C@H](C)NC(=O)[C@H](CC(=O)O)NC(=O)[C@H](C)NC(=O)[C@@H](N)CCCNC(=N)N)C(=O)O` [R], the LDH release was “about 62.35%”.

Source: patent US10485895B2, “Self-assembling peptide scaffolds” (CELLULAR AND MOLECULAR RESEARCH CENTER, IRAN UNIVERSITY OF …, priority 2016, dated 2019)
